Tests used:
[1] = system: CCI neuropathic pain (mechanical allodynia); assay: Rat chronic constriction injury (CCI) neuropathic pain model, SC dosing, von Frey testing (Example 1); format: in vivo
Protocol: Pathogen-free adult male Sprague-Dawley rats (300-375 g; Harlan Labs, Madison, Wis.) were used in all experiments. Rats were housed in temperature (23+/−3° C.) and light (12 hour:12 hour, light:dark cycle; lights on at 0700) controlled rooms with standard rodent chow and water available ad libitum.
Chronic Constriction Injury (CCI) model: Neuropathic pain was induced using the CCI model of partial sciatic nerve injury (see, e.g., Bennett and Xie, […]). CCI was performed at the mid-thigh level of the left hindleg as previously described in Milligan, et al., Eur. J. Neuroscience, 20:2294-2302 (2004). In brief, four sterile chromic gut sutures (cuticular 4-0 chromic gut, FS-2; Ethicon, Somerville, N.J., USA) were loosely tied around the gently isolated sciatic nerve. Drug testing was delayed until 10-14 days after surgery to ensure that neuropathic pain was well established prior to the initiation of drug delivery.
XT-203 CCI SC: Rats (10/group) were subjected to CCI neuropathic pain model surgery. After the pain state was established, they were dosed 3× per day for 5 days with XT-203 or a positive control (gabapentin) dose. Behavior testing for pain responses by von Frey testing was used to establish pain thresholds in the affected hind paw. Because dosage was 3×/day, behavior testing was performed after the first and second dose of day 1 dosing (1.1, 1.2) and after the first and second dose of day 5 dosing (5.1, 5.2). […]
Von Frey Test for Mechanical Allodynia: Rats received at least three 60 min habituations to the test environment prior to behavioral testing. Response thresholds to calibrated light pressure stimuli applied to the plantar surface of the paws was measured using the von Frey test. […] Briefly, rats were first assessed for baseline response thresholds (average of three consecutive withdrawal assessments) from each paw at 15 min intervals, and the average response threshold from both feet was calculated. […] Allodynia was assessed pre- and post-drug delivery.

[2] = system: CCI neuropathic pain (mechanical allodynia); assay: Rat CCI model, oral and subcutaneous phases (Study R042); format: in vivo
Protocol: Rat chronic constriction injury model-Oral and subcutaneous (+)-NTX and XT-203: An efficacy study was conducted in the rat chronic constriction injury (CCI) model (Study R042). The study design comprised two phases. A five-day period of oral (PO) dosing and behavioral testing was followed by a five-day period of subcutaneous (SC) dosing, with a two-day washout period between these periods. Dosing on each day was performed three times a day (TID). Behavioral testing for mechanical allodynia was performed on the first and fifth days of dosing, at three times on those days: before the first dose of the day, 30 minutes after the first dose of the day, and 30 minutes after the second dose of the day. Thus, day 5 testing is designated as pre5.1 (before the first dose of the day), 5.1 (fifth day, after first dose) or 5.2 (fifth day, after second dose). On day 5 of the subcutaneous dosing phase, a second testing period was introduced 60 minutes after the second dose. (+)-NTX (6, 18, and 60 mg/kg) and XT-203. Mechanical allodynia was tested manually, using the Chaplan up-down testing method. The results are shown in FIGS. 10A and 10B, with the oral (PO) phase presented as the first pair of graphs. After the two-day washout, the subcutaneous (SC) phase was carried out with the results shown in the graphs at FIGS. 10C and 10D.
The CCI model was well established in this study, with allodynic response thresholds between 2 and 3 grams (presurgical baseline thresholds at 15 g, not shown). […] This is especially remarkable given the extremely rapid metabolism and pharmacokinetics of (+)-NTX (see FIG. 9). Here, the dampening of efficacy due to lack of significant amounts of parent compound is particularly evident. Thus, the appropriate dose-ranging conditions in animal models should reflect (+)-NTX serum levels during efficacy testing, to match pharmacokinetics with pharmacodynamics. […] Efficacy is only observed after the first dose on day 5. Thus, changes designed to improve compound stability do provide improved efficacy.

[3] = Hepatocyte elimination of parent compound, spread across species; format: in vitro ADME; conditions: mouse, rat, dog, monkey, human, hepatocytes; lowest to highest species value; read-out: range of hepatocyte elimination half-life values across species
Protocol: Hepatocyte Elimination: (+)-NTX, AK-17 and XT-203 were incubated with cultured hepatocytes from the species listed in FIG. 9 and Table 4, and samples of the culture supernatant were collected over time. Samples were concentrated by nitrogen drying followed by reconstitution with 40% methanol for LC/MS analysis The data points were analyzed using the WinNonLin pharmacokinetics software package, and a half-life was determined that describes the rate of parent elimination. […].
In addition to the animal studies presented above in Examples 1-9, the results of in vitro testing of several of the compounds (i.e., XT-203, XT-204, and XT-206 through XT-217) are shown in Table 5 and Table 6. […]. Nine additional compounds had two or fewer off-target hits in the screening. […] These compounds spanned all of the tested N-modification classes. […]. Thus, the medicinal chemistry approach taken in this series of fluorinated compounds can yield low off-target activity and longer metabolic lifetime while preserving TLR4 antagonism. It is appreciated that further development of compounds in this class, using techniques known to those skilled in the art, may yield additional compounds with desirable pharmacologic and toxicologic characteristics.

[4] = in vitro; conditions: dog, cultured hepatocytes
[5] = in vitro; conditions: monkey, cultured hepatocytes
[6] = system: acute nociceptive pain (paw incision); assay: Rat paw incision model, subcutaneous (Study R049); conditions: 30 mg/kg SC TID, five days; morphine 3 mg/kg as positive control

| SMILES | effect on pain threshold (von Frey), data not shown ([1]; SC) | efficacy on mechanical allodynia, medium and high doses ([2]; (+)-NTX 18 and 60 mg/kg TID, PO d1, SC d1, SC d5 panels) | effect on pain threshold (von Frey), day 1 dosing ([1]; XT-203 19 mg/kg SC 3x per day, FIG. 5A) | effect on pain threshold (von Frey), day 5 testing ([1]; XT-203 19 mg/kg SC 3x per day, FIG. 5B) | reversal of allodynia at pre5.1 (before first dose of day 5) ([2]; XT-203 18 mg/kg SC TID) | efficacy on mechanical allodynia, subcutaneous, day 5 ([2]; XT-203 18 mg/kg SC TID, after the first dose on day 5) | half-life [3] | half-life [4] | half-life [5] | efficacy in rat paw incision model at the high dose [6] |
| --- | --- | --- | --- | --- | --- | --- | --- | --- | --- | --- |
| O=C1CC[C@]2(O)[C@@H]3Cc4ccc(O)c5c4[C@]2(CCN3CC2CC2)[C@@H]1O5 [(+)-naltrexone, reference compound] | not effective | some efficacy |  |  |  |  |  |  |  |  |
| COc1ccc2c3c1O[C@@H]1C(F)CCC4[C@H](C2)N(CC2CC2)CC[C@]341 (stereo partly shown) [XT-203] |  |  | minimal effect | substantial effect | does not show reversal of allodynia | some significant efficacy | 13.2 to 54.3 min | 24.3 min | 13.7 min | significant efficacy |
